Results reported in BindingDB's records for doi:10.1021/jm400938g (State Key Laboratory of Bioreactor Engineering, 2013).

Assays:
[1] = molecular target: T1, Dihydroorotate dehydrogenase (quinone), mitochondrial (Plasmodium falciparum, UniProt Q54A96); experiment: Inhibition of Plasmodium falciparum DHODH (Phe158 to Ser569) expressed in Escherichia coli BL21 using dihydroorotate as substrate measured every 30 secs for 6 mins by DCIP dye-based assay
T1 sequence (Q54A96 whole entry): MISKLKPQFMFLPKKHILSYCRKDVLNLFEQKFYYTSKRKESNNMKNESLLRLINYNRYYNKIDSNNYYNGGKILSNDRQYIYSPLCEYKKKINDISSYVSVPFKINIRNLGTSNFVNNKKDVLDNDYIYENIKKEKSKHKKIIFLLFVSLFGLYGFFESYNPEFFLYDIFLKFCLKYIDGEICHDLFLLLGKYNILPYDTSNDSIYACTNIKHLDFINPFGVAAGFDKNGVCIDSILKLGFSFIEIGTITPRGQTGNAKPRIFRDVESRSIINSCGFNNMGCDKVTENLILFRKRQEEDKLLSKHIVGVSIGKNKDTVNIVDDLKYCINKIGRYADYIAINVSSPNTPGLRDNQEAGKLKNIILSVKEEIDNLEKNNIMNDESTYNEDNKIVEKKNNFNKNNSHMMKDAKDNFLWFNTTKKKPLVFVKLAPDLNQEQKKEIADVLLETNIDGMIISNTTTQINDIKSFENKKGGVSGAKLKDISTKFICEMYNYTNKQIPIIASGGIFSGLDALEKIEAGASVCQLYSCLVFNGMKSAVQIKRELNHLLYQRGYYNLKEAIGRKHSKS

[2] = molecular target: Dihydroorotate dehydrogenase (quinone), mitochondrial (Homo sapiens, UniProt Q02127); experiment: Inhibition of N-terminal His10-tagged human DHODH (Met30 to Arg396) expressed in Escherichia coli BL21 (DE3) using dihydroorotate as substrate measured every 30 secs for 6 mins by DCIP dye-based assay
Chain of Dihydroorotate dehydrogenase (quinone), mitochondrial (Homo sapiens, UniProt Q02127) (Q02127 whole entry): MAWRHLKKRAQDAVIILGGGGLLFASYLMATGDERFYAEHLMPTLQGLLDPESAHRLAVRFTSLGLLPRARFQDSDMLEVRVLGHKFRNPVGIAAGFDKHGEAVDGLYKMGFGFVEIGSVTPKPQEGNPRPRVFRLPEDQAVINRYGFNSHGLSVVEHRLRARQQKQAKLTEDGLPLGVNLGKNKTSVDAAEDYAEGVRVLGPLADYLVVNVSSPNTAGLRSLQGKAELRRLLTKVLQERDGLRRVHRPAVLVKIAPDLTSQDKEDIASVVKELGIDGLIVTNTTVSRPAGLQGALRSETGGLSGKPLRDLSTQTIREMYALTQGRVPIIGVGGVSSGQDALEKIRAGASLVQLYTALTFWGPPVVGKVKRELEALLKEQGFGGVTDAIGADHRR

IC50 [1] [µM]	IC50 [2] [µM]	Structure (SMILES)
> 50	> 50	Cc1ccc(Nc2scc(O)c2C(N)=O)cc1C
> 50	> 50	CCOC(=O)c1c(O)csc1Nc1ccc(Br)cc1C
> 50	> 50	Cc1ccc(Nc2scc(O)c2C(=O)O)cc1C

The next lines start with the compound.

Structure (SMILES)	IC50 [1] [µM]	IC50 [2] [µM]
CCOC(=O)c1c(O)csc1Nc1ccccc1	> 50	> 50
O=C(NCC1CC1)c1c(O)csc1Nc1ccc2ccccc2c1	> 50	> 50
CCCNC(=O)c1c(O)csc1Nc1ccc2ccccc2c1	> 50	> 50
CCCCNC(=O)c1c(O)csc1Nc1ccc2ccccc2c1	> 50	> 50
CCOC(=O)c1c(O)csc1Nc1cccc(C(F)(F)F)c1	> 50	> 50
